Our source for the Km values is article doi:10.1101/525329v1, “The large loop-8 insert in Saccharomyces cerevisiae kinesin-5 Cin8 is necessary and sufficient to promote noncanonical microtubule interactions” (biorxiv, 2019).

What all share (test): NADH-coupled steady-state ATPase assay
In one test the test system is T1, Eg5-CL8.
T1 construct: gene KIF11; monomeric Eg5 motor domain with 99-residue Cin8 loop-8 insert; bacterial expression, pET16b
It counts as biochemical, Homo sapiens. The note with it: low ionic strength (7.5 mM KCl, 21 mM IS), 2 μM paclitaxel-stabilized bovine microtubules, 2 mM MgCl2, pH 7.2, 298 K; kcat from microtubule-dependent fit at 1 mM ATP.

A further test relates to T2, Eg5-KL8.
T2 construct: gene KIF11; monomeric Eg5 motor domain with Kip1 loop-8 insert; bacterial expression, pET16b
It counts as biochemical, Homo sapiens. The note with it: high ionic strength (75 mM KCl, 88 mM IS), 10 μM paclitaxel-stabilized bovine microtubules, 2 mM MgCl2, pH 7.2, 298 K; kcat from microtubule-dependent fit; read-out: Km,ATP.

A further test relates to T3, Cin8-EL8.
T3 construct: monomeric Cin8 motor domain with Eg5 loop-8 insert; bacterial expression, pET32b
It counts as biochemical, Saccharomyces cerevisiae. The note with it: low ionic strength (7.5 mM KCl, 21 mM IS), 5 μM paclitaxel-stabilized bovine microtubules, 2 mM MgCl2, pH 7.2, 298 K; kcat from microtubule-dependent fit; read-out: Km,ATP.

What is called Km is the substrate concentration at which the rate is half of its maximum. Turning to `Nc1ncnc2c1ncn2[C@@H]1O[C@H](COP(=O)(O)OP(=O)(O)OP(=O)(O)O)[C@@H](O)[C@H]1O` [ATP], the Km with Eg5-CL8 came to 40 ± 11 µM; with Eg5-KL8, 16 ± 4 µM; in the test with Cin8-EL8 it was 39 ± 7 µM.
